Results: US20020137929A1, “1 - (3-heterocyclylphenyl) isothiourea, -isourea, -guanidine and -amidine herbicidal agents” (Intellectual Property Department, BASF Aktiengesellschaft, priority 1998, published 2002)

Key:
[1] = system: CHEAL (Lambsquarters, Common); assay: Postemergence herbicidal evaluation; type: in vivo, Chenopodium album; settings: postemergence
Method in brief: (§1)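 Scores (0–9) reflect plant stand, vigor, malformation, size, chlorosis and general appearance relative to control, read 4 to 5 weeks after treatment and averaged where tests were repeated. Application: about 0.0156–0.500 kg/ha sprayed at 40 psi onto two-week seedlings.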

[2] = system: TRZAWR (Wheat, Winter, cv Riband); assay: Preemergence herbicidal evaluation; type: in vivo, Triticum aestivum; settings: rated 4-5 weeks after treatment
Method in brief: (§2)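 Preemergence soil application of compound, sprayed in aqueous acetone at rates equivalent to about 0.0156 to 0.500 kg per hectare onto freshly sown cups. Plant response was judged by eye on a 0-9 scale four to five weeks later.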

[3] = system: GLXMAW (Soybean, Williams); assay: Preemergence herbicidal evaluation; type: in vivo, Glycine max, (L.) Merr. cv Williams; settings: rated 4-5 weeks after treatment
Method in brief: as §2

[4] = system: ECHCG (Barnyardgrass); assay: Postemergence herbicidal evaluation; type: in vivo, Echinochloa crus-galli; settings: postemergence
Method in brief: as §1

[5] = system: ORYSAT (Rice, Tebonnet); assay: Postemergence herbicidal evaluation; type: in vivo, Oryza sativa, (L.) Tebonnet; settings: postemergence
Method in brief: as §1

[6] = system: IPOHE (Morningglory, Ivyleaf); assay: Postemergence herbicidal evaluation; type: in vivo, Ipomoea hederacea; settings: postemergence
Method in brief: as §1

[7] = system: ZEAMX (Corn, Field); assay: Preemergence herbicidal evaluation; type: in vivo, Zea mays; settings: rated 4-5 weeks after treatment
Method in brief: as §2

[8] = system: ECHCG (Barnyardgrass); assay: Preemergence herbicidal evaluation; type: in vivo, Echinochloa crus-galli; settings: rated 4-5 weeks after treatment
Method in brief: as §2

[9] = system: CYPSE (Flatsedge); assay: Postemergence weed control under flooded paddy conditions; type: in vivo, Cyperus serotinus; settings: postemergence weeds, rated 3 to 4 weeks after treatment
Method in brief: (§3)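 Containers holding 3–5 cm weeds and rice at 1.5–2.5 leaves are flooded to 1.5–3 cm above soil. Compound in 50/50 v/v aqueous/acetone is then added directly to the water, about 0.0313–0.500 kg/ha. Plants are kept in the greenhouse and rated 0–9 visually at 3–4 weeks.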

[10] = system: ZEAMX (Corn, Field); assay: Postemergence herbicidal evaluation; type: in vivo, Zea mays; settings: postemergence
Method in brief: as §1

[11] = system: CYPIR (Rice Flatsedge); assay: Postemergence weed control under flooded paddy conditions; type: in vivo, Cyperus iria; settings: postemergence weeds, rated 3 to 4 weeks after treatment
Method in brief: as §3

[12] = system: IPOHE (Morningglory, Ivyleaf); assay: Preemergence herbicidal evaluation; type: in vivo, Ipomoea hederacea; settings: rated 4-5 weeks after treatment
Method in brief: as §2

[13] = system: ABUTH (Velvetleaf); assay: Preemergence herbicidal evaluation; type: in vivo, Abutilon theophrasti; settings: rated 4-5 weeks after treatment
Method in brief: as §2

[14] = system: CHEAL (Lambsquarters, Common); assay: Preemergence herbicidal evaluation; type: in vivo, Chenopodium album; settings: rated 4-5 weeks after treatment
Method in brief: as §2

[15] = system: ABUTH (Velvetleaf); assay: Postemergence herbicidal evaluation; type: in vivo, Abutilon theophrasti; settings: postemergence
Method in brief: as §1

[16] = system: CASOB (Sicklepod); assay: Preemergence herbicidal evaluation; type: in vivo, Cassia obtusifolia; settings: rated 4-5 weeks after treatment
Method in brief: as §2

[17] = system: SETVI (Foxtail, Green); assay: Postemergence herbicidal evaluation; type: in vivo, Setaria viridis; settings: postemergence
Method in brief: as §1

Cn1c(C(F)(F)F)cc(=O)n(-c2cc(N=C3SCC(=O)N3CC(=O)OCC#N)c(Cl)cc2F)c1=O [Compound 109, 2-{{2-Chloro-5-[3,6-dihydro-3-methyl-2,6-dioxo-4-(trifluoromethyl)-1(2H)-pyrimidinyl]-4-fluorophenyl}imino}-4-oxo-3-thiazolidineacetic acid, ester with glycolonitrile]
2.5: Preemergence herbicidal rating ECHCG ([8]; rate 0.0313 kg/ha)
7.5: Preemergence herbicidal rating GLXMAW ([3]; rate 0.1250 kg/ha)
3.0: herbicidal rating ECHCG ([4]; rate 0.0315 kg/ha) | herbicidal rating ECHCG ([4]; rate 0.0630 kg/ha) | herbicidal rating ORYSAT ([5]; rate 0.0158 kg/ha) | Preemergence herbicidal rating ZEAMX ([7]; rate 0.0156 kg/ha)
5.5: Preemergence herbicidal rating CASOB ([16]; rate 0.0625 kg/ha)
0.0: Preemergence herbicidal rating TRZAWR ([2]; rate 0.0156 kg/ha) | herbicidal rating ECHCG ([4]; rate 0.0158 kg/ha) | Herbicidal rating CYPSE ([9]; Rate 0.0313 kg/ha) | Herbicidal rating CYPSE ([9]; Rate 0.0625 kg/ha) | Herbicidal rating CYPIR ([11]; Rate 0.0313 kg/ha)
6.0: Preemergence herbicidal rating TRZAWR ([2]; rate 0.1250 kg/ha) | Preemergence herbicidal rating ZEAMX ([7]; rate 0.1250 kg/ha) | herbicidal rating SETVI ([17]; rate 0.0158 kg/ha)
7.0: Preemergence herbicidal rating ZEAMX ([7]; rate 0.5000 kg/ha) | Preemergence herbicidal rating ECHCG ([8]; rate 0.1250 kg/ha) | Herbicidal rating CYPSE ([9]; Rate 0.2500 kg/ha) | herbicidal rating ZEAMX ([10]; rate 0.0630 kg/ha) | Herbicidal rating CYPIR ([11]; Rate 0.2500 kg/ha) | herbicidal rating SETVI ([17]; rate 0.0315 kg/ha)
8.0: Preemergence herbicidal rating IPOHE ([12]; rate 0.1250 kg/ha) | Preemergence herbicidal rating IPOHE ([12]; rate 0.2500 kg/ha)
4.5: herbicidal rating ORYSAT ([5]; rate 0.0315 kg/ha)
1.0: Preemergence herbicidal rating TRZAWR ([2]; rate 0.0313 kg/ha) | Preemergence herbicidal rating TRZAWR ([2]; rate 0.0625 kg/ha)
4.0: Preemergence herbicidal rating TRZAWR ([2]; rate 0.2500 kg/ha) | Preemergence herbicidal rating ZEAMX ([7]; rate 0.0625 kg/ha) | Preemergence herbicidal rating ECHCG ([8]; rate 0.0625 kg/ha) | Herbicidal rating CYPIR ([11]; Rate 0.1250 kg/ha) | Preemergence herbicidal rating CASOB ([16]; rate 0.0313 kg/ha)
6.5: Preemergence herbicidal rating ZEAMX ([7]; rate 0.2500 kg/ha) | herbicidal rating ZEAMX ([10]; rate 0.0158 kg/ha) | herbicidal rating ZEAMX ([10]; rate 0.0315 kg/ha) | Preemergence herbicidal rating ABUTH ([13]; rate 0.0156 kg/ha) | Preemergence herbicidal rating CASOB ([16]; rate 0.0156 kg/ha) | Preemergence herbicidal rating CASOB ([16]; rate 0.1250 kg/ha)
2.0: Preemergence herbicidal rating GLXMAW ([3]; rate 0.0313 kg/ha) | Herbicidal rating CYPIR ([11]; Rate 0.0625 kg/ha) | Preemergence herbicidal rating IPOHE ([12]; rate 0.0156 kg/ha) | Preemergence herbicidal rating IPOHE ([12]; rate 0.0313 kg/ha)
1.5: Preemergence herbicidal rating GLXMAW ([3]; rate 0.0156 kg/ha) | Preemergence herbicidal rating ECHCG ([8]; rate 0.0156 kg/ha)
8.5: Preemergence herbicidal rating ECHCG ([8]; rate 0.2500 kg/ha)
9.0: herbicidal rating CHEAL ([1]; rate 0.0158 kg/ha) | herbicidal rating CHEAL ([1]; rate 0.0315 kg/ha) | herbicidal rating CHEAL ([1]; rate 0.0630 kg/ha) | Preemergence herbicidal rating GLXMAW ([3]; rate 0.2500 kg/ha) | Preemergence herbicidal rating GLXMAW ([3]; rate 0.5000 kg/ha) | herbicidal rating IPOHE ([6]; rate 0.0158 kg/ha) | herbicidal rating IPOHE ([6]; rate 0.0315 kg/ha) | herbicidal rating IPOHE ([6]; rate 0.0630 kg/ha) | Preemergence herbicidal rating ECHCG ([8]; rate 0.5000 kg/ha) | Preemergence herbicidal rating IPOHE ([12]; rate 0.5000 kg/ha) | Preemergence herbicidal rating ABUTH ([13]; rate 0.0313 kg/ha) | Preemergence herbicidal rating ABUTH ([13]; rate 0.0625 kg/ha) | Preemergence herbicidal rating ABUTH ([13]; rate 0.1250 kg/ha) | Preemergence herbicidal rating ABUTH ([13]; rate 0.2500 kg/ha) | Preemergence herbicidal rating ABUTH ([13]; rate 0.5000 kg/ha) | Preemergence herbicidal rating CHEAL ([14]; rate 0.0156 kg/ha) | Preemergence herbicidal rating CHEAL ([14]; rate 0.0313 kg/ha) | Preemergence herbicidal rating CHEAL ([14]; rate 0.0625 kg/ha) | Preemergence herbicidal rating CHEAL ([14]; rate 0.1250 kg/ha) | Preemergence herbicidal rating CHEAL ([14]; rate 0.2500 kg/ha) | Preemergence herbicidal rating CHEAL ([14]; rate 0.5000 kg/ha) | herbicidal rating ABUTH ([15]; rate 0.0158 kg/ha) | herbicidal rating ABUTH ([15]; rate 0.0315 kg/ha) | herbicidal rating ABUTH ([15]; rate 0.0630 kg/ha) | Preemergence herbicidal rating CASOB ([16]; rate 0.2500 kg/ha) | Preemergence herbicidal rating CASOB ([16]; rate 0.5000 kg/ha) | herbicidal rating SETVI ([17]; rate 0.0630 kg/ha)
3.5: Preemergence herbicidal rating ZEAMX ([7]; rate 0.0313 kg/ha)
5.0: Preemergence herbicidal rating GLXMAW ([3]; rate 0.0625 kg/ha) | herbicidal rating ORYSAT ([5]; rate 0.0630 kg/ha) | Preemergence herbicidal rating IPOHE ([12]; rate 0.0625 kg/ha)
